The values below come from patent US8268823B2, “Medical use of triazine derivatives” (University of Greenwich, priority 2006, dated 2012).

For experiment [1], the target named is T1, DiHydroFolate Reductase (DHFR) (Rattus norvegicus, UniProt Q920D2).
T1 construct: from tissue; host or cells: rat liver homogenate supernatant (47,500 x g)
T1 sequence (Q920D2 1-187): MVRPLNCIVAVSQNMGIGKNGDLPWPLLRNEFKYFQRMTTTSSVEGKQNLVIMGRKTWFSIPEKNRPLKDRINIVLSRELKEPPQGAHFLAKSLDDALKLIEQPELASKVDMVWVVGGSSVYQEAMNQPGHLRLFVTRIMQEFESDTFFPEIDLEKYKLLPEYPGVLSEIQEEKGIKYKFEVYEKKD
Nature of the experiment: inhibition of binding of [3H]methotrexate to rat liver homogenate supernatant. As to conditions: for inhibition at 20 µM: assay concentration 20 μM; for IC50: rat liver supernatant; for inhibition at 495 µM: assay concentration 495 μM. The protocol:
All steps were carried out at 4° (or on ice). Freshly dissected rat liver was dissected into 0.25M ice-cold Sucrose and subsequently homogenised (U-turrax) in 50 mM pH 6.0 phosphate buffer (10 ml/g tissue) containing 15 mM Dithiothreitol. The resulting homogenate was centrifuged @ 47,500×g for 20 min and supernatant (filtered through cotton wool to remove fatty lumps) stored @-80° before use (Rothenberg et al).
The binding reaction was stopped by the addition of 50 μl of a charcoal suspension (consisting of charcoal, Bovine Serum Albumin and Dextran present in a weight ratio of 100:4:1 suspended in 50 mM pH 6.0 phosphate buffer. Samples were vortexed, allowed to stand for 2 minutes and charcoal was precipitated by microcentrifugation @ full speed for 5 min. Aliquots of clear supernatant were transferred to counting vials containing liquid scintillant for measurement of radioactivity using Liquid Scintillation Spectroscopy.
Percentage inhibition values were calculated by comparison to this value.
(§1) Data are presented as mean±sem of number of experiments indicated in brackets.

The test system of experiment [2] is sodium channel. Nature of the experiment: veratrine-evoked uptake of [14C]guanidine into rat forebrain synaptosomes ([14C]guanidine flux). It counts as biochemical. As to conditions: for Hill (uptake of [14C]guanidine): slope. The protocol: The screening strategy is designed to select compounds with appropriate sodium channel blocking activity and low side effect liability. To this end all compounds are processed through the primary sodium channel assay (veratrine-evoked uptake of [^14C]guanidine into rat forebrain synaptosomes) and IC50 values computed from generated concentration-effect curves.
Synaptosomes (heavy and light mitochondrial fraction containing synaptosomes) were prepared by transferring the forebrain (of known wet weight) to a glass Potter vessel to which 9 volumes ice-cold 0.25M sucrose had been added and homogenising, using a teflon pestle, by 8 ‘up and down strokes’ of a Braun Potter S motor driven homogeniser set to 900 rpm. The resulting homogenate was centrifuged at 1036×g at 4° for 10 min and the supernatant collected. The remaining pellet was resuspended, as above, in fresh ice-cold 0.25M sucrose and the centrifugation step repeated. The supernatant fractions were pooled and centrifuged at 40,000×g (average) at 4° for 15 min and the resulting pellet resuspended in the appropriate assay buffer at a concentration of 20-25 mg wet weight per ml appropriate assay buffer.
Both assays were carried out using 14 ml polypropylene test tubes to which a range of concentrations of the compounds under test were added.
Compounds under test were pre-incubated for 10 min at 30° in incubation buffer (50 mM pH 7.4 HEPES (adjusted to pH 7.4 with Tris base), 130 mM choline chloride, 5.5 mM D-glucose, 0.8 mm MgSO4 and 5 mM KCl) containing 7.5 mg original wet weight of tissue and 100 μg veratrine HCl in a final volume of 0.5 ml. […] A further 2×5 ml of ice-cold wash buffer was added to each tube and the vacuum filtration step repeated. The GF/C glass fibre filters were transferred to minivials and 4 ml Picofluor^40 liquid scintillant added using a Brandel™ deposit/dispense system. Radioactivity was measured using a Beckman Liquid Scintillation Counter.
as §1

[3] abbreviates: read-out: [3H]methotrexate binding Inhibition (% @ assay conc'n).
[4] abbreviates: read-out: [3H]methotrexate binding Inhibition (% @ assay conc'n), assay concentration 99 μM.
[5] abbreviates: Table 3, rat forebrain synaptosomes, read-out: [14C]guanidine flux Mean (IC50: μM).
[6] abbreviates: Table 8, read-out: IC50 (μM) (uptake of [14C]guanidine).

Molecules are shown by their SMILES. Where two headings read alike, the source gives them in different places.

In the case of `N=c1nc(N)c(-c2cccc(Cl)c2Cl)nn1CC(N)=O` [Example 11], the inhibition (in general, the relative decrease from the control value, in per cent) at 20 µM in experiment [1] (setting [3]) is -3%. In addition, the inhibition at 99 µM in experiment [1] (setting [4]) is -3%. In experiment [2] (setting [5]), the IC50 (as a rule, the concentration that inhibits the measured activity by half) is above 100 µM.
For the compound `Cc1ccc(Cn2nc(-c3cccc(Cl)c3Cl)c(N)nc2=N)cc1` [Example 12, 5(3)-Amino-6-(2,3-dichlorophenyl)-2,3(2,5)-dihydro-3(5)-imino-2-(4-methyl)phenylmethyl-1,2,4-triazine], the inhibition at 20 µM in experiment [1] (setting [3]) was -2%. For the same compound, the inhibition at 99 µM in experiment [1] (setting [4]) is -3%. Also, the IC50 in experiment [2] (setting [5]) turned out to be 4.1 µM.
For `N=c1nc(N)c(-c2cccc(Cl)c2Cl)nn1Cc1ccc(F)cc1` [Example 16, 5(3)-Amino-6-(2,3-dichlorophenyl)-2,3(2,5)-dihydro-3(5)-imino-2-(4-fluoro)phenylmethyl-1,2,4-triazine], in experiment [1] (read-out: [3H]methotrexate binding Inhibition (% @ assay conc'n), assay concentration 10 μM), the inhibition at 10 µM was -3%. Further, in experiment [1] (setting [4]), the inhibition at 99 µM was -3%. For the same compound, in experiment [2] (setting [5]), the IC50 turned out to be 5.1 µM.
As to `N=c1nc(N)c(-c2cccc(Cl)c2Cl)nn1Cc1cccc(Cl)c1` [Example 20, 5(3)-Amino-6-(2,3-dichlorophenyl)-2,3(2,5)-dihydro-3(5)-imino-2-(3-chloro)phenylmethyl-1,2,4-triazine], the “[3H]methotrexate binding Inhibition (% @ assay conc'n)” value in experiment [1] (assay concentration 9 μM) is on record as −4%; in experiment [1] (assay concentration 99 μM), −7%. The IC50 in experiment [2] (setting [5]) came to 3.5 µM.
Regarding `N=c1nc(N)c(-c2cccc(Cl)c2Cl)nn1Cc1ccc(Cl)cc1` [Example 21, 5(3)-Amino-6-(2,3-dichlorophenyl)-2,3(2,5)-dihydro-3(5)-imino-2-(4-chloro)phenylmethyl-1,2,4-triazine], the “[3H]methotrexate binding Inhibition (% @ assay conc'n)” value in experiment [1] (assay concentration 10 μM) and in experiment [1] (assay concentration 95 μM) was −4% each time. Besides, the IC50 in experiment [2] (setting [5]) stood at 6.5 µM.
In the case of `N=c1nc(N)c(-c2cccc(Cl)c2Cl)nn1Cc1ccccc1Cl` [Example 22, 5(3)-Amino-6-(2,3-dichlorophenyl)-2,3(2,5)-dihydro-3(5)-imino-2-(2-chloro)phenylmethyl-1,2,4-triazine], in experiment [2] (setting [5]), the IC50 is 4.6 µM.
On the same count and under the same terms, the same measure for `N=c1nc(N)c(-c2cccc(Cl)c2Cl)nn1Cc1ccc(C(F)(F)F)cc1` [Example 25, 5(3)-Amino-6-(2,3-dichlorophenyl)-2,3(2,5)-dihydro-3(5)-imino-2-(4-trifluoromethyl)phenylmethyl-1,2,4-triazine]: 6.2 µM.
On to `N=c1nc(N)c(-c2cccc(Cl)c2Cl)nn1Cc1cccc(C(F)(F)F)c1F` [Example 26, 5(3)-Amino-6-(2,3-dichlorophenyl)-2,3(2,5)-dihydro-3(5)-imino-2-(2-fluoro-3-trifluoromethyl)phenylmethyl-1,2,4-triazine], for which the IC50 in experiment [2] (setting [5]) was 5.3 µM.
Consider `N=c1nc(N)c(-c2cccc(Cl)c2Cl)nn1Cc1ccc(C(N)=O)cc1` [Example 27, 4-{[5(3)-Amino-6-(2,3-dichlorophenyl)-2,3-dihydro-3(5)-imino-1,2,4-triazin-2-yl]methyl}benzamide or 5(3)-Amino-6-(2,3-dichlorophenyl)-2,3(2,5)-dihydro-3(5)-imino-2-(3-carboxamido)phenylmethyl-1,2,4-triazine], for which the IC50 in experiment [2] (setting [5]) is 234 µM.
As to `N=c1nc(N)c(-c2cccc(Cl)c2Cl)nn1Cc1ccc(CO)cc1` [Example 28, 4-{[5(3)-Amino-6-(2,3-dichlorophenyl)-2,3-dihydro-3(5)-imino-1,2,4-triazin-2-yl]methyl}phenylmethanol or 5(3)-Amino-6-(2,3-dichlorophenyl)-2,3(2,5)-dihydro-3(5)-imino-2-(4-hydroxymethyl)phenylmethyl-1,2,4-triazine], the half-maximal inhibitory concentration (IC50) in experiment [2] (setting [5]) was determined as 49 µM.
Take `Nc1nnc(-c2cccc(F)c2F)c(N)n1` [Example 33, 6-(2,3-difluorophenyl)-1,2,4-triazine-3,5-diamine]: the IC50 is 442 ± 5.1 µM in experiment [1] and above 300 µM in experiment [2] (setting [5]).
As to `Nc1nnc(-c2cccc(Cl)c2F)c(N)n1` [Example 35], the half-maximal inhibitory concentration (IC50) is 81.3 µM in experiment [1] and 490 µM in experiment [2] (setting [5]).
For `CC(C)(C)OC(=O)N1CCC(Cn2nc(-c3cccc(Cl)c3Cl)c(N)nc2=N)CC1` [Example 37, 1,1-Dimethylethyl 4-[5(3)-Amino-6-(2,3-dichlorophenyl)-2,3(2,5)-dihydro-3(5)-imino-1,2,4-triazin-2-ylmethyl]piperidine-1-carboxylate or 5(3)-Amino-6-(2,3-dichlorophenyl)-2,3(2,5)-dihydro-3(5)-imino-2-(Bocpiperidin-4-yl)methyl-1,2,4-triazine], in that order: above 300 µM and 12.9 µM.
Take `Nc1nnc(-c2ccccc2)c(N)n1` [Example 43, 3,5-Diamino-6-phenyl-1,2,4-triazine]: the inhibition at 50 µM in experiment [1] (read-out: [3H]methotrexate binding Inhibition (% @ assay conc'n), assay concentration 50 μM) amounted to 82%. In experiment [2] (setting [5]), the IC50 is above 500 µM.
Take `Nc1nnc(-c2ccc(Cl)cc2Cl)c(N)n1` [Example 44, 3,5-Diamino-6-(2,4-dichlorophenyl)-1,2,4-triazine]: the IC50 was 105 µM in experiment [1] and 603 µM in experiment [2] (setting [5]).
As for `Cn1nc(-c2ccc(Cl)cc2Cl)c(N)nc1=N` [Example 45, 5(3)-Amino-6-(2,4-dichlorophenyl)-2,3(2,5)-dihydro-3(5)-imino-2-methyl-1,2,4-triazine methanesulfonate], the inhibition at 495 µM in experiment [1] (setting [3]) was -1%. Moreover, the IC50 in experiment [2] (setting [5]) is 87.1 µM.
For the compound `Cn1nc(-c2ccccc2)c(N)nc1=N` [Example 46, 5(3)-Amino-6-phenyl-2,3(2,5)-dihydro-3(5)-imino-2-methyl-1,2,4-triazine methanesulfonate], the IC50 in experiment [1] is 288 µM; in experiment [2] (setting [5]), 2290 µM.
With `CCn1nc(-c2ccccc2)c(N)nc1=N` [Example 47, 5(3)-Amino-6-phenyl-2,3(2,5)-dihydro-3(5)-imino-2-ethyl-1,2,4-triazine methanesulfonate], in experiment [1] (setting [3]), the inhibition at 495 µM came out at 1%. In experiment [2] (setting [5]), the IC50 came out at 676 µM.
`N=c1nc(N)c(-c2cccc(Cl)c2Cl)nn1CCF` [Example 52, 5(3)-Amino-6-(2,3-dichlorophenyl)-2,3(2,5)-dihydro-3(5)-imino-2-(2-fluoroethyl)-1,2,4-triazine methanesulfonate]: in experiment [2] (Table 8), the “pIC50 (uptake of [14C]guanidine)” value is 5.00 ± 0.08 and the “Hill (uptake of [14C]guanidine)” value was 0.74. Further, in experiment [2] (setting [6]), the IC50 was found to be 10 µM.
With `Cn1nc(-c2cc(Cl)cc(Cl)c2)c(N)nc1=N` [Example 53, 5(3)-Amino-6-(3,5-dichlorophenyl)-2,3(2,5)-dihydro-3(5)-imino-2-methyl-1,2,4-triazine methanesulfonate], in experiment [2] (Table 8), the “pIC50 (uptake of [14C]guanidine)” value is 4.34 ± 0.16 and the “Hill (uptake of [14C]guanidine)” value is 0.73. Also, the IC50 in experiment [2] (setting [6]) amounted to 45.7 µM.
Turning to `CCn1nc(-c2cc(Cl)cc(Cl)c2)c(N)nc1=N` [Example 54, 5(3)-Amino-6-(3,5-dichlorophenyl)-2,3(2,5)-dihydro-3(5)-imino-2-ethyl-1,2,4-triazine methanesulfonate], in experiment [2] (Table 8), the “pIC50 (uptake of [14C]guanidine)” value was found to be 4.73 ± 0.11 and the “Hill (uptake of [14C]guanidine)” value was determined as 0.76. Further, the IC50 in experiment [2] (setting [6]) was found to be 18.6 µM.
For `N=c1nc(N)c(-c2cc(Cl)cc(Cl)c2Cl)nn1CCF` [Example 55, 5(3)-Amino-6-(2,3,5-trichlorophenyl)-2,3(2,5)-dihydro-3(5)-imino-2-(2-fluoroethyl)-1,2,4-triazine methanesulfonate], in experiment [2] (Table 8), the “pIC50 (uptake of [14C]guanidine)” value is reported as 5.20 ± 0.05 and the “Hill (uptake of [14C]guanidine)” value is given as 0.79. Also, in experiment [2] (setting [6]), the 50% inhibitory concentration (IC50) is 6.31 µM.
`N=c1nc(N)c(-c2cc(Cl)cc(Cl)c2Cl)nn1CCC(F)(F)F` [Example 56, 5(3)-Amino-6-(2,3,5-trichlorophenyl)-2,3(2,5)-dihydro-3(5)-imino-2-(3,3,3-trifluoropropyl)-1,2,4-triazine methanesulfonate]: in experiment [2] (Table 8), the “pIC50 (uptake of [14C]guanidine)” value turned out to be 2.90 ± 0.20 and the “Hill (uptake of [14C]guanidine)” value amounted to 0.83. In addition, the IC50 in experiment [2] (setting [6]) stood at 1260 µM.
